Calls of active or inactive are those of the source. The rule behind the calls is not given here.
How the values were obtained:
Mus musculus [1] = test: % T/C value was measured against Murine P388 Lymphocytic Leukemia cells in CDF1 mice at the dose 100 mg/kg; toxic; format: functional, organism-based; parameters: dose 100 mg/kg
Mus musculus [2] = test: % T/C value was measured against Murine P388 Lymphocytic Leukemia cells in CDF1 mice at the dose 12.5 mg/kg; format: functional
Mus musculus [3] = test: % T/C value was measured against Murine P388 Lymphocytic Leukemia cells in CDF1 mice at the dose 200 mg/kg; toxic; format: functional, organism-based; parameters: dose 200 mg/kg
Mus musculus [4] = test: % T/C value was measured against Murine P388 Lymphocytic Leukemia cells in CDF1 mice at the dose 25 mg/kg; format: functional
Mus musculus [5] = test: % T/C value was measured against Murine P388 Lymphocytic Leukemia cells in CDF1 mice at the dose 3.13 mg/kg; format: functional
Mus musculus [6] = test: % T/C value was measured against Murine P388 Lymphocytic Leukemia cells in CDF1 mice at the dose 50 mg/kg; format: functional
Mus musculus [7] = test: % T/C value was measured against Murine P388 Lymphocytic Leukemia cells in CDF1 mice at the dose 6.25 mg/kg; format: functional
Mus musculus [8] = test: Change in weight of P388 lymphocytic leukemia infected mice was determined when the compound was administered at dose of 12.5 mg/kg; format: functional
Mus musculus [9] = test: Change in weight of P388 lymphocytic leukemia infected mice was determined when the compound was administered at dose of 25 mg/kg; format: functional
Mus musculus [10] = test: Change in weight of P388 lymphocytic leukemia infected mice was determined when the compound was administered at dose of 3.13 mg/kg; format: functional
Mus musculus [11] = test: Change in weight of P388 lymphocytic leukemia infected mice was determined when the compound was administered at dose of 50 mg/kg; format: functional
Mus musculus [12] = test: Change in weight of P388 lymphocytic leukemia infected mice was determined when the compound was administered at dose of 6.25 mg/kg; format: functional
Mus musculus [13] = test: % T/C value was measured against Murine P388 Lymphocytic Leukemia cells in CDF1 mice at the dose 100 mg/kg; format: functional
Mus musculus [14] = test: Change in weight of P388 lymphocytic leukemia infected mice was determined when the compound was administered at dose of 100 mg/kg; format: functional
Mus musculus [15] = test: % T/C value was measured against Murine P388 Lymphocytic Leukemia cells in CDF1 mice at the dose 25 mg/kg; toxic; format: functional, organism-based; parameters: dose 25 mg/kg
Mus musculus [16] = test: % T/C value was measured against Murine P388 Lymphocytic Leukemia cells in CDF1 mice at the dose 50 mg/kg; toxic; format: functional, organism-based; parameters: dose 50 mg/kg
Mus musculus [17] = test: % T/C value was measured against Murine P388 Lymphocytic Leukemia cells in CDF1 mice at the dose 200 mg/kg; format: functional
Mus musculus [18] = test: Change in weight of P388 lymphocytic leukemia infected mice was determined when the compound was administered at dose of 200 mg/kg; format: functional
Homo sapiens [19] = test: Optimum % T/C value was measured against Human MX-1 breast Xenograft at the dose of 600 mg/kg (s.c.), schedule was Q01DX03 (three doses), day 1(first dose was given, tumor was implanted on day zero); format: functional
Homo sapiens [20] = test: Optimum % T/C value was measured against Human CX-1 colon Xenograft at the dose of 300-600mg/kg, schedule was Q01DX04 (four doses), day 1(first dose was given, tumor was implanted on day zero); IA means inactive; format: functional, organism-based
Homo sapiens [21] = test: Optimum % T/C value was measured against Human LX-1 lung Xenograft at the dose of 150 mg/kg, schedule was Q01DX03, day 1; format: functional
Mus musculus [22] = test: Optimum % T/C value was measured against Murine B16 melanocarcinoma cells at the dose of 12.5 mg/kg, schedule was Q01DX09, day 1; format: functional
Mus musculus [23] = test: Optimum % T/C value was measured against Murine CD8F1 mammary cells at the dose of 250 mg/kg (subcutaneous), schedule was Q01DX01 (one dose), day 21(21 dose was given, tumor was implanted on day zero); format: functional
Mus musculus [24] = test: Optimum % T/C value was measured against Murine L1210 lymphoid leukemia cells at the dose of 25 mg/kg, schedule was Q01DX09 (nine doses), day 1(first dose was given, tumor was implanted on day zero); format: functional
Mus musculus [25] = test: Optimum % T/C value was measured against Murine Lewis lung carcinoma cells at the dose of 3.12-50mg/kg, schedule was Q01DX09 (nine doses), day 1(first dose was given, tumor was implanted on day zero); inactive; format: functional, organism-based
Mus musculus [26] = test: Optimum % T/C value was measured against Murine colon 38 cells at the dose of 100 mg/kg (subcutaneous), schedule was Q01DX02 (two doses), day 2(second dose was given, tumor was implanted on day zero); format: functional, MC-38

Structure (SMILES) | T/C (Mus musculus [1]) | T/C (Mus musculus [2]) [%] | T/C (Mus musculus [3]) | T/C (Mus musculus [4]) [%] | T/C (Mus musculus [5]) [%] | T/C (Mus musculus [6]) [%] | T/C (Mus musculus [7]) [%] | Weight change (Mus musculus [8]) | Weight change (Mus musculus [9]) | Weight change (Mus musculus [10]) [g] | Weight change (Mus musculus [11]) | Weight change (Mus musculus [12]) [g] | T/C (Mus musculus [13]) [%] | Weight change (Mus musculus [14]) [g] | also measured
CNC(=O)OCc1cn2c(c1COC(=O)NC)-c1ccccc1CC2C (stereo not drawn) | Toxic | 153 | Toxic | 169 | 138 | 79 | 138 | -4.4 g | -4.8 g | -0.3 | -5 g | -1 | – | – | –
CNC(=O)OCc1c(COC(=O)NC)c(-c2ccc(OC)cc2)n2c1CCC2 | – | 132 | Toxic | 132 | – | 131 | – | -3.2 g | -3.3 g | – | -4 g | – | 125 | -4 | –
COc1ccc2c(c1)CCn1c(C)c(COC(=O)NC(=O)NC3CCCCC3)c(COC(=O)NC(=O)NC3CCCCC3)c1-2 | – | 134 | Toxic | 137 | – | 151 | 137 | -4.4 g | -6.7 g | – | -6.5 g | -3.3 | 92 | -6 | –
CCNC(=O)OCc1cn2c(c1COC(=O)NCC)-c1ccccc1CC2C (stereo not drawn) | Toxic | 185 | Toxic | – | 142 | – | 141 | -6 g | – | -1.3 | – | -1.2 | – | – | T/C (Mus musculus [15]): Toxic; T/C (Mus musculus [16]): Toxic
CNC(=O)OCc1c(COC(=O)NC)c(-c2ccccc2)n(C)c1C | Toxic | 130 | – | 145 | – | 90 | 135 | -3.3 g | -3.9 g | – | -4.6 g | -2.5 | – | – | –
CC1Cc2ccccc2-c2c(COC(=O)NC3CCCCC3)c(COC(=O)NC3CCCCC3)cn21 (stereo not drawn) | Toxic | 178 | Toxic | 182 | – | 101 | – | -4.3% | -4.6% | – | -6.4% | – | – | – | –
CNC(=O)OCc1c(COC(=O)NC)c(-c2ccccc2)n2c1CCC2 | – | – | – | – | – | 124 | – | – | – | – | -2.1 g | – | 124 | -1.8 | T/C (Mus musculus [17]): 60%; Weight change (Mus musculus [18]): -3.5 g
COc1ccc2c(c1)CCn1c(C)c(COC(=O)NC(C)C)c(COC(=O)NC(C)C)c1-2 | Toxic | 153 | Toxic | 153 | 142 | – | 136 | -3 g | -5.6 g | -1.1 | – | -2.1 | – | – | T/C (Homo sapiens [19]): -100%; T/C (Homo sapiens [20]): inactive; T/C (Homo sapiens [21]): 55%; T/C (Mus musculus [16]): Toxic; T/C (Mus musculus [22]): 180%; T/C (Mus musculus [23]): -27%; T/C (Mus musculus [24]): 152%; T/C (Mus musculus [25]): inactive; T/C (Mus musculus [26]): 48%
CNC(=O)OCc1c(COC(=O)NC)c(-c2ccc(OC)cc2)n(C)c1C | Toxic | 138 | – | 145 | – | 152 | 135 | -3.2 g | -3.4 g | – | -4.4 g | -2.4 | – | – | –

Reference: ChEMBL document CHEMBL1122755, “Synthesis and murine antineoplastic activity of bis[(carbamoyloxy)methyl] derivatives of pyrrolo[2,1-a]isoquinoline” (1984)
